Among the data in PubChem BioAssay AID2060327 (Molecular Pharmacology Branch, DTP, NCI, 2025) are viability, T/C and IC50 values, retold here.

The assay concerns PC-3 multi-cell spheroids, viability. Briefly: Anticancer human tumor PC-3 cell line growth inhibition [IpAb].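 As to all read-outs here: spheroids exposed to compounds for 7 days before readout.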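 As to viability, T/C: 100% = DMSO vehicle control wells.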 To be noted: for viability, T/C: stronger effect = lower value. An excerpt: Combinatorial screen of targeted agents with ipatasertib and abemaciclib in multi-cell type tumor spheroids
A high-throughput screen of multi-cell type tumor spheroids was designed to identify active combinations of targeted small molecules and ipatasertib or abemaciclib. Complex spheroids include a stromal component modeled by human endothelial cells (HUVEC) and fibroblasts modeled by human mesenchymal stem cells (MSCs). The concentration ranges selected for each drug and investigational agent were based upon clinically achievable concentrations if the clinical Cmax of the agent was known.
Compounds. The drugs and investigational agents: ipatasertib (NSC767898), abemaciclib(NSC768073), selumetinib (NSC741078), trametinib (758246), adavosertib (NSC754352), everolimus (NSC733504), sapanisertib (NSC764658), vemurafenib (NSC761431), venetoclax (NSC766270), copanlisib (NSC809693), apelisib (NSC765974), palbociblib (NSC758247), vemurafenib (NSC761431), dabrafenib (NSC764134), ravoxertinib (NSC781343), BMS-387032 (NSC767048), sotorasib (NSC818433), talazoparib (NSC767125) and afursertib (NSC778305), were obtained from the National Cancer Institute (NCI) Developmental Therapeutics Program Chemical Repository. The FDA-approved anticancer drug set is available from the NCI Developmental Therapeutics Program. […] The stock solutions were prepared in dimethyl sulfoxide (DMSO, Sigma-Aldrich, St. Louis, MO, cat. D2650) at 800-fold the tested concentration and stored at -70 degrees C prior to their use. All drugs and investigational agents were tested over a range starting from a high concentration at or near the clinical Cmax and decreasing in half-log increments. If the clinical Cmax for an agent had not been determined, the highest concentration tested was 10 microM.
NCI60 Cell Culture. NCI60 cell lines were obtained from the NCI Developmental Therapeutics Program Tumor Repository. For each lot of cells, the Repository performed Applied Biosystems AmpFLSTR Identifiler testing with PCR amplification to confirm consistency with the published Identifier STR profile for each cell line. Cells were kept in continuous culture for no more than 20 passages. The optimal seeding densities for each of the cell lines at each time point assessed were determined prior to performing the concentration response studies. Briefly, the NCI60 human tumor lines were grown as monolayers in RPMI 1640 medium supplemented with 10% FBS and 2 mmol/L L-glutamine.
An additional 9 lines were from the NCI60 cell line panel including MDA-MB-231 breast carcinoma, MDA-MB-468 breast carcinoma, MCF7 breast carcinoma, Hs578T breast carcinoma, MALME-3M melanoma, SK-MEL-2 melanoma, SK-OV-3 ovarian carcinoma, DU-145 prostate carcinoma, PC-3 prostate carcinoma, all cell lines along with major genetic alterations are listed on Table 2. Pooled donor human umbilical vein endothelial cells (HUVEC, Lonza, cat. CC-2519) and human mesenchymal stem cells (hMSC, Lonza, cat. PT-2501) were purchased from Lonza (Walkersville, MD).
PDMR cell lines were grown in complete medium (DC medium): Dulbecco's modified Eagle's medium (DMEM)/F12 supplemented with 5% fetal bovine serum (FBS), 2 mM L-glutamine, 100 U/mL penicillin and 100 µg/ml streptomycin, 0.4 µg/ml hydrocortisone, 10 ng/ml epidermal growth factor (EGF) recombinant human protein, 24 µg/mL adenine, and 0.1 mg/mL primocin. During culture from frozen stock vials, PDMR cells were cultured in the same medium containing 10 µM Y-27632 (see Table 3). The PDCs were cultured in complete DMEM/F12 media without 10 microM Y-27632 dihydrochloride for at least two passages prior to the screen. The pooled donor HUVEC and hMSC were cultured in endothelial cell growth medium 2 (PromoCell, Heidelberg, Germany, cat. C-22011) and mesenchymal stem cell growth medium 2 (PromoCell, cat. C-28009), respectively. For all experiments, HUVEC and hMSC were used at passages </=5.
[…]

“And” between values parts separate entries of the source, which are not always exact repeats. Equal entries are not always repeated.

As for `C=CC(=O)N1CCN(c2nc(=O)n(-c3c(C)ccnc3C(C)C)c3nc(-c4c(O)cccc4F)c(F)cc23)C(C)C1` (stereo not drawn), the viability, T/C (usually the ratio of treated to control) was 108% and 98.7% (compound 0.0316 µM); 100% and 108% (compound 0.1 µM); 90.2% and 99.7% (compound 0.316 µM); 110% and 112% (compound 1 µM); 122% (compound 3.16 µM); 79.6% and 119% (compound 10 µM). Besides, under “curve of compound”, the IC50 (usually the concentration at which inhibition is half-maximal) was > 10000 nM.
As to `C=CCn1c(=O)c2cnc(Nc3ccc(N4CCN(C)CC4)cc3)nc2n1-c1cccc(C(C)(C)O)n1`, the viability, T/C is 102% and 104% (compound 0.0316 µM); 94% and 92.4% (compound 0.1 µM); 68.1% and 67.3% (compound 0.316 µM); 23.1% and 31.4% (compound 1 µM); 26.6% and 22.3% (compound 3.16 µM); 26.4% and 23.9% (compound 10 µM). The IC50 (curve of compound) is 515 nM and 548 nM.
As to `CC(=O)c1c(C)c2cnc(Nc3ccc(N4CCNCC4)cn3)nc2n(C2CCCC2)c1=O`, the viability, T/C is 95.8% and 105% (compound 0.000949 µM); 96.3% and 95.7% (compound 0.003 µM); 88.9% and 83.5% (compound 0.00949 µM); 63.2% and 72.3% (compound 0.03 µM); 56.1% and 64.3% (compound 0.0949 µM); 62.9% and 61.2% (compound 0.3 µM). Moreover, the IC50 (curve of compound) is > 300 nM.
Take `CC(C)(C)c1cnc(CSc2cnc(NC(=O)C3CCNCC3)s2)o1`: the viability, T/C (compound 0.00949 µM) was 100% and 112%; the viability, T/C (compound 0.03 µM) was 119% and 114%; the viability, T/C (compound 0.0949 µM) is 108% and 120%; the viability, T/C (compound 0.3 µM) is 16.7% and 4.98%; the viability, T/C (compound 0.949 µM) was 6.38% and 6.26%; the viability, T/C (compound 3 µM) is 6.95% and 7.36%. Also, the IC50 (curve of compound) was 197 nM and 189 nM.
As for `CC(C)NCC(C(=O)N1CCN(c2ncnc3c2C(C)CC3O)CC1)c1ccc(Cl)cc1` (stereo not drawn), the viability, T/C (compound 0.1 µM) is 72.9% [middle of 13 runs]; the viability, T/C (compound 0.316 µM) was 43.7% [middle of 13 runs]; the viability, T/C (compound 1 µM) is 24.7% [middle of 12 runs]; the viability, T/C (compound 3.16 µM) is 14.9% [middle of 12 runs]; the viability, T/C (compound 10 µM) was 13.3% [middle of 13 runs]. Further, where the note is “compound alone, run of 44348”, the concentration for half-maximal inhibition (IC50) was 249 nM [middle of 13 runs].
For the compound `CC(C)n1nc(-c2ccc3oc(N)nc3c2)c2c(N)ncnc21`, the viability, T/C (compound 0.000316 µM) is 93% and 98.7%; the viability, T/C (compound 0.001 µM) is 55.6% and 81.3%; the viability, T/C (compound 0.00316 µM) was 42.7% and 57.6%; the viability, T/C (compound 0.01 µM) was 25.8% and 25%; the viability, T/C (compound 0.0316 µM) was 11.9% and 12.8%; the viability, T/C (compound 0.1 µM) was 9.65% and 10.2%. Moreover, the IC50 (curve of compound) is 1.71 nM and 3.89 nM.
For the compound `CC1(C)CCC(CN2CCN(c3ccc(C(=O)NS(=O)(=O)c4ccc(NCC5CCOCC5)c([N+](=O)[O-])c4)c(Oc4cnc5[nH]ccc5c4)c3)CC2)=C(c2ccc(Cl)cc2)C1`, the viability, T/C was 105% and 102% (compound 0.0316 µM); 107% and 108% (compound 0.1 µM); 105% and 112% (compound 0.316 µM); 107% and 108% (compound 1 µM); 85.4% and 109% (compound 3.16 µM); 3.66% and 4.01% (compound 10 µM). In addition, the IC50 (curve of compound) was 5210 nM and 6000 nM.
Turning to `CCCS(=O)(=O)Nc1ccc(F)c(C(=O)c2c[nH]c3ncc(-c4ccc(Cl)cc4)cc23)c1F`, the viability, T/C was 118% and 111% (compound 0.0316 µM); 106% and 99.5% (compound 0.1 µM); 114% and 111% (compound 0.316 µM); 111% and 101% (compound 1 µM); 118% and 112% (compound 3.16 µM); 72.7% and 67.1% (compound 10 µM). The IC50 (curve of compound) was > 10000 nM.
Consider `CCN1CCN(Cc2ccc(Nc3ncc(F)c(-c4cc(F)c5nc(C)n(C(C)C)c5c4)n3)nc2)CC1`, for which, under “compound alone, run of 44348”, the IC50 is > 1000 nM and 502 nM.
`COc1c(OCCCN2CCOCC2)ccc2c3n(c(=NC(=O)c4cnc(N)nc4)nc12)CCN3`: the viability, T/C was 97.6% and 101% (compound 0.00316 µM); 79% and 99.4% (compound 0.01 µM); 47.7% and 104% (compound 0.0316 µM); 21.7% and 69.3% (compound 0.1 µM); 6.8% and 11.9% (compound 0.316 µM); 5.07% and 9.47% (compound 1 µM). Also, the IC50 (curve of compound) is 29.2 nM and 146 nM.
Regarding `Cc1nc(NC(=O)N2CCCC2C(N)=O)sc1-c1ccnc(C(C)(C)C(F)(F)F)c1` (stereo not drawn), the viability, T/C is 82.8% and 73.3% (compound 0.0316 µM); 78.5% and 59.6% (compound 0.1 µM); 50.1% and 53.2% (compound 0.316 µM); 49.3% and 48% (compound 1 µM); 44% and 47.7% (compound 3.16 µM); 15.2% and 14.2% (compound 10 µM). The IC50 (curve of compound) is 849 nM and 1070 nM.
As to `Cn1cnc2c(F)c(Nc3ccc(Br)cc3Cl)c(C(=O)NOCCO)cc21`, the viability, T/C (compound 0.00949 µM) was 105% and 99.8%; the viability, T/C (compound 0.03 µM) was 113% and 107%; the viability, T/C (compound 0.0949 µM) was 96.4% and 95.3%; the viability, T/C (compound 0.3 µM) was 85.1% and 96%; the viability, T/C (compound 0.949 µM) is 91.9% and 91%; the viability, T/C (compound 3 µM) is 65.1% and 73.2%. Moreover, the IC50 (curve of compound) was > 3000 nM.
For `Cn1ncc(Cl)c1-c1cc(C(=O)NC(CN)Cc2cccc(F)c2)sc1Cl` (stereo not drawn), the viability, T/C (compound 0.0316 µM) is 89.7% and 88.1%; the viability, T/C (compound 0.1 µM) was 62.9% and 60.5%; the viability, T/C (compound 0.316 µM) is 43.6% and 36.2%; the viability, T/C (compound 1 µM) was 23% and 19.2%; the viability, T/C (compound 3.16 µM) is 17.9% and 16.2%; the viability, T/C (compound 10 µM) is 0.14% and 0.16%. Besides, the IC50 (curve of compound) is 212 nM and 165 nM.
With `Cn1nccc1Nc1nccc(-c2ccn(C(CO)c3ccc(Cl)c(F)c3)c(=O)c2)n1` (stereo not drawn), the viability, T/C runs as follows: (compound 0.0316 µM) 98.1% and 104%; (compound 0.1 µM) 99.6% and 97.7%; (compound 0.316 µM) 90.7% and 104%; (compound 1 µM) 119% and 109%; (compound 3.16 µM) 125% and 119%; (compound 10 µM) 41.7% and 92.9%. The IC50 (curve of compound) was 8630 nM and > 10000 nM.
On to `Cn1ncnc1[C@H]1c2n[nH]c(=O)c3cc(F)cc(c23)N[C@@H]1c1ccc(F)cc1`, for which the viability, T/C reads like this: (compound 0.000316 µM) 96.7% and 95.8%; (compound 0.001 µM) 87.8% and 95.3%; (compound 0.00316 µM) 74.8% and 63%; (compound 0.01 µM) 53.3% and 58.5%; (compound 0.0316 µM) 43.7% and 50.4%; (compound 0.1 µM) 43.8% and 39%. Moreover, the IC50 (curve of compound) was 16.3 nM and 19.1 nM.
